Assay results reported in patent publication US9409904B2, “Compounds and compositions for use in augmentation of glucose” (YISSUM RESEARCH DEVELOPMENT COMPANY OF THE HEBREW …, priority 2011, dated 2016).
Entries after “also recorded” stand apart in the source; their conditions may differ.

Experiments:
[1] = tested on: GLUT4; assay: Total GLUT4 content in whole cell lysates of L6 myotubes, Western blot; format: cell-based
Protocol: (§1) Whole cell lysates were prepared as previously described with some minor modifications: the lysis buffer contained 50 mM Tris-HCl, pH 7.5, 1 mM EDTA, 1 mM EGTA, 1 mM Na3VO4, 150 mM NaCl, 50 mM NaF, 10 mM sodium-glycerophosphate, 5 mM sodium pyrophosphate, and 1 mM PMSF, supplemented with 0.1% (v/v) NP-40, 0.1% (v/v) 2-β-mercaptoethanol, and protease inhibitor cocktail (1:100 dilution). The cells were washed by ice-cold PBS, and 1 ml of lysis buffer was then added and incubated at 4° C. for 40 minutes. The resulting cell lysates were centrifuged at 8,700 g×30 minutes at 4° C. and the resulting supernatant fractions were separated and kept at −20° C. until used. Protein content in the supernatant was determined according to Bradford, using a BSA standard dissolved in the same buffer. Aliquots (5-60 μg of protein) were mixed with the sample buffer [62.5 mM Tris-HCl, pH 6.8, 2% (w/v) SDS, 10% (v/v) glycerol, 50 mM DTT, and 0.01% (w/v) bromophenol blue], heated at 95° C. for 5 minutes. Samples for Western blot analyses of GLUT1 and GLUT4 were prepared as described in [22]. The proteins were separated on 10% SDS-PAGE and Western blot analyses performed using antibodies according to our previously established protocols.

[2] = tested on: L6 myotubes; assay: [3H]-2-deoxy-D-glucose (dGlc) uptake assay in L6 myotubes; format: cell-based
Protocol: The effect of the various derivatives on the rate of glucose uptake in L6 myotubes was investigated. […] The abundance of GLUT1 and GLUT4 in the plasma membranes of L6 myotubes was determined in cells expressing GLUT-1myc or GLUT-4myc, as described before. […] In addition, the effect of compounds on the glucose—stimulated insulin secretion (GSIS) was investigated.
L6 myotubes were maintained as described in [21]. All experiments were conducted on fully differentiated myotubes.
The rate of [^3H]dGlc uptake in myotubes, in the absence or presence of insulin, was determined as described in [21]. […] […] The cultures were then rinsed 3 times with PBS at room temperature and incubated with PBS, pH 7.4, containing 0.1 mM dGlc and 1.0 μCi/ml [^3H]dGlc for 5 minutes at room temperature. At the end of the assay, the myotubes were lysed in 0.1% (w/v) SDS in water and taken for liquid scintillation.

[3] = tested on: AMPK; assay: Thr172 phosphorylation of AMPK in L6 myotubes, Western blot of whole cell lysates; format: cell-based
Protocol: as §1, with “The effect of the various derivatives on the rate of glucose uptake in L6 myotubes was investigated. […] The abundance of GLUT1 and GLUT4 in the plasma membranes of L6 myotubes was determined in cells expressing GLUT-1myc or GLUT-4myc, as described before. […] In addition, the effect of compounds on the glucose—stimulated insulin secretion (GSIS) was investigated. Whole” for “Whole”, “Aliquots (5-60 μg of protein) were mixed with the sample buffer [62.5 mM Tris-HCl, pH 6.8, 2% (w/v) SDS, 10% (v/v) glycerol, 50 mM DTT, and 0.01% (w/v) bromophenol blue], heated at 95° C. for 5 minutes.” left out

[4] = tested on: diabetic KKAy mice; assay: Blood glucose level in diabetic KKAy mice after subcutaneous injection; format: in vivo; conditions: for reduction of blood glucose: 75 mg/kg s.c. twice daily in sesame oil
From the text: (§2) The effect of the various ethoxybenzo-thiazol derivatives on the blood glucose level in diabetic KKAy mice was investigated. The in vivo antihyperglycemic effect of the lead compound was investigated in hyperglycemic and hyperinsulinemic KKAy mice, an established animal model for T2DM, after subcutaneous injections. Venous blood samples from small tail clips were taken for glucose determination. Finally, to investigate the effect of the lead compound on whole body glucose disposal in the mice we performed standard IP-GTT tests following an overnight fast.
Diabetic male KKAy mice (8 to 12-week old, 20-25 g) were purchased from The Jackson Laboratory (Bar Harbor, Me.). The animals were routinely kept in 12-h light/dark cycles and provided with food and water ad libitum. Blood glucose levels at sacrifice ranged between 17-25 mmol/l. The ethics committee (IACUC) of the Hebrew University of Jerusalem approved the study protocol for animal welfare. The Hebrew University of Jerusalem is an AAALAC international accredited institution.
(§3) The antihyperglycemic potential of 34 was investigated in an animal model of diabetes. Test compound was injected subcutaneously (75 mg per kg body weight, suspension in sesame oil, twice daily) to diabetic KKAy mice; control mice received the vehicle only. The blood glucose levels at day zero, 20.8±0.9 and 22.3±1.3 mM for the control and 34-treated groups, respectively, were taken as the reference 100% values in FIG. 4A. […] It should be noted, however, that despite the marked antihyperglycemic effects of 34, normoglycemia was not reached. To better evaluate the potential of 34, the glucose tolerance of treated KKAy mice was evaluated using a standard IP-GTT. The mice were treated with 34 as described above for two days, after which IP-GTT was performed after an overnight fast, as described. […] IP-GTT was performed following an overnight fast in mice treated with 34 or oil, as described herein above. […] The cells were grown in standard RPMI1640 complete culture medium, treated with 10 μM compound 20 and incubated for the indicate time periods. At the end of incubations the cells were taken for a standard GSIS assay described herein.

[5] = tested on: GLUT4myc; assay: Colorimetric determination of surface GLUT4myc in L6 myotubes; format: cell-based
Protocol: The colorimetric detection of surface GLUT4myc or GLUT1myc in L6 myotubes was performed as described in [7]. Briefly, cultured myotubes were incubated with rabbit anti-C-Myc antibody (1:200 dilution), washed and fixed with 3% formaldehyde, and further interacted with goat HRP-conjugated anti-rabbit IgG (1:2000 dilution). Following the washes, a solution of OPD was added, and the culture plates were taken for absorbance measurement at 492 nM to estimate the relative abundance of GLUT1myc or GLUT4myc on the plasma membrane of the myotubes. The GLUT1myc and GLUT4myc L6 cell cultures were the courtesy of Dr. A. Klip, Hospital for Sick Children (Toronto, ON, Canada).
The capacity of compound 34 to increase the rate of glucose uptake by increasing GLUT4 content in the plasma membrane of myotubes was tested. […] The cells expressing GLUT1myc or GLUT4myc were treated with 25 μM of 34 or DMSO as described above. At the end of the incubation, the cultures were taken for immunodetection of surface GLUT1myc (open bars) or GLUT4myc (black bars), as described herein above.

[6] = tested on: diabetic KKAy mice; assay: Intraperitoneal glucose tolerance test (IP-GTT) in KKAy mice; format: in vivo
From the text: as §2
A standard IP-GTT test was performed on mice after an overnight fast. Glucose in saline was injected intraperitoneally (1.5 g/kg body weight). Venous blood samples from small tail clips were taken for glucose determination using a glucometer (FreeStyle Freedom, Abbott Diabetes Care, Alamada, Calif.).
as §3

[7] = tested on: GLUT1; assay: Total GLUT1 content in whole cell lysates of L6 myotubes, Western blot; format: cell-based
Protocol: as §1

[8] = tested on: L6 myotubes; assay: Cytotoxic effects in L6 myotube cultures; format: cell-based; conditions: above 100 μM

CCOc1ccc2nc(SCc3nc4ccccc4s3)sc2c1 [Compound 34, 2-((benzothiazol-2-ylmethyl)thio)-6-ethoxybenzothiazole]
total content of GLUT4 in myotubes [1]: Neither compound altered | minimal effective concentration, glucose uptake [2]: 25 µM | persistence of stimulatory effect on glucose uptake [2]: up to 24 hours | rate of glucose uptake in L6 myotubes (result in words) [2]: increase; also recorded: markedly augmented | stimulatory effect on glucose uptake in the presence of wortmannin or Akt/PKB inhibitor ([2]; 100 nM wortmannin or 100 nM Akt/PKB inhibitor added 30 min before): PI3K- and Akt/PKB-independent manner; also recorded: remained unaltered | increase of rate of glucose uptake, combined effect with insulin ([2]; 25 μM of 34 (5 hours) plus insulin 100 nM (last 20 minutes)): 148%±29% | increase of rate of glucose uptake ([2]; 25 μM of 34, last 5 hours, serum free, 23.0 mM D-glucose, without insulin): 75%±17% | increase of rate of glucose uptake ([2]; under similar experimental conditions (5 hours)): 2.5 fold | time to significant Thr172 phosphorylation of AMPK ([3]; incubation time): ≤ 1 h | normoglycemia ([4]; 75 mg/kg s.c. twice daily): not reached | reduction of blood glucose ([4]; day 1): ~30% | reduction of blood glucose ([4]; day 2): ~45% | reduction of blood glucose ([4]; day 3): ~50% | period required to exert action on GLUT4myc translocation [5]: 5 h | abundance of GLUT4myc in the plasma membrane ([5]; 25 μM of 34, insulin): induces GLUT-4; also recorded: increased | glucose tolerance (result in words) ([6]; 75 mg/kg s.c. twice daily, two days): improved glucose tolerance; also recorded: significantly improved | IP-GTT area under the curve (AUC) ([6]; two days of treatment, overnight fast, glucose 1.5 g/kg i.p.): 753.6±142.2 mmol glucose/l/min | improvement of total body glucose clearance ([6]; two-day treatment): 40%-50% | total content of GLUT1 in myotubes [7]: Neither compound altered

CCC1SC(N)=NC1=O (stereo not shown) [Compound 3, 2-amino-5-ethylthiazol-4(5H)-one]
rate of glucose uptake in L6 myotubes (result in words) [2]: increase; also recorded: augmented | time of maximal glucose uptake stimulatory effect ([2]; 100 μM): ≤ 5 h | rate of glucose uptake compared to vehicle (DMSO) treated control ([2]; 100 μM, basal rate = 100%): 131.4%±6.8% | activity at 100 µM ([2]; Rattus norvegicus, L6, 100 μM, Mean ± SD (n = 3), Table 1, read-out: Effect on glucose uptake [100 μM] in L6 myotubes (%)): 131 ± 6.8% | maximal effective concentration, glucose uptake ([2]; dose response, 5 h (3) or 12 h (4, 15)): 100 µM | time of return of Thr172 phosphorylation to the basal hypo-phosphorylated level ([3]; 100 μM): 3 h | Thr172 phosphorylation in AMPK / AMPK activation (result in words) ([3]; L6 myotubes): increased | time of maximal (peak) Thr172 phosphorylation in AMPK ([3]; incubation time): 40 min | cytotoxic effects [8]: cytotoxic effects
